Laboratory results from patent US11440909B2, “10H-phenothiazine ferroptosis inhibitor as well as the preparative method and the use thereof” (CHENGDU HENGHAO INVESTMENT CO. LIMITED, priority 2018, dated 2022).

test system: fibrosarcoma cell line HT1080; assay: Ferroptosis screening model (MTT method), Erastin-induced ferroptosis; assay type: cell-based, human; details: HT1080, ferroptosis inducer Erastin, 72 h, average of three tests, read-out: EC50
Experimental: The screening model for ferroptosis mainly used MTT method. First, the fibrosarcoma cell line HT1080 was cultured in a dish, and the cells in the logarithmic growth phase were inoculated into a 96-well plate in a certain number (3000-10000 cells/well), 100 μL per well, and then the plate was put in an 5% CO2 incubator at 37° C., to allow the cells to adhere. After 24 h, 100 μL compound solution at a certain concentration prepared in the designated medium and ferroptosis inducer Erastin (with a final concentration of […]) were added, setting 3 replicate wells for each compound to ensure the accuracy of the results, and a negative control group, a positive control group (Fer-15 μM), a blank control group and a solvent control group were included. After addition of drugs, the plate was placed in an incubator and cultivated for 72 h. On the day of MTT experiment, MTT test solution (5 mg/mL MTT solution dissolved in physiological saline, and stored in the dark at 4° C.) was pre-prepared and 20 μL MTT solution was added to each well, then the plate was put in an incubator and continued to incubate for 2-4 h. After that, 50 μL of 20% SDS solution (dissolved in MiliiQ water, added with 1% concentrated hydrochloric acid) was added to each well and kept in an incubator overnight. On the next day, the absorbance at 570 nm was measured with a microplate reader, to calculate the inhibition rate of drugs on ferroptosis. Generally, the absorbance value of the control group should be in the range of 0.8-1.2 as a normal value.
GraphPadPrism5 software was used to fit the change curve of inhibition rate and calculate the EC50.

EC50	Structure (SMILES)
24 nM	C=C(c1ccc(C(=O)N2CCOCC2)cc1)c1ccc2c(c1)Nc1ccccc1S2 [Compound B47, (4-(1-(10H-phenothiazin-2-yl)ethenyl)phenyl)(morpholine)ketone]
10 nM	C=C(c1cnc(N2CCOCC2)nc1)c1ccc2c(c1)Nc1ccccc1S2 [Compound B51, 4-(5-(1-(10H-phenothiazin-2-yl)ethenyl)pyrimidin-2-yl)morpholine]

same assay, conditions: Homo sapiens, HT-1080, 72 h, HT1080, ferroptosis inducer Erastin, 72 h, average of three tests, read-out: EC50

Structure (SMILES)	EC50
C=C(c1cccc(OC)c1)c1ccc2c(c1)Nc1ccccc1S2 [Compound B21, 2-(1-(3-methoxylphenyl)ethenyl)-10H-phenothiazine]	11 nM
C=C(c1cccc(OC(C)C)c1)c1ccc2c(c1)Nc1ccccc1S2 [Compound B23, 2-(1-(3-isopropoxylphenyl)ethenyl)-10H-phenothiazine]	48 nM
C=C(c1cccc(C)c1)c1ccc2c(c1)Nc1ccccc1S2 [Compound B24, 2-(1-(m-methylphenyl)ethenyl)-10H-phenothiazine]	31 nM
C=C(c1cccc(C(N)=O)c1)c1ccc2c(c1)Nc1ccccc1S2 [Compound B26, 3-(1-(10H-phenothiazin-2-yl)ethenyl)benzamide]	16 nM
C=C(c1cccc(C(C)C)c1)c1ccc2c(c1)Nc1ccccc1S2 [Compound B27, 2-(1-(3-isopropylphenyl)ethenyl)-10H-phenothiazine]	38 nM
C=C(c1cccc(C(=O)OCC)c1)c1ccc2c(c1)Nc1ccccc1S2 [Compound B28, ethyl3-(1-(10H-phenothiazin-2-yl)ethenyl)benzoic acid]	27 nM
C=C(c1cccc(-c2ccccc2)c1)c1ccc2c(c1)Nc1ccccc1S2 [Compound B29, 2-(1-([1,1′-diphenyl]-3-yl)ethenyl)-10H-phenothiazine]	41 nM
C=C(c1cccc(C(F)F)c1)c1ccc2c(c1)Nc1ccccc1S2 [Compound B34, 2-(1-(3-(difluoromethyl)phenyl)ethenyl)-10H-phenothiazine]	11 nM
C=C(c1cccc(OCc2ccccc2)c1)c1ccc2c(c1)Nc1ccccc1S2 [Compound B35, 2-(1-(3-(benzyloxyl)phenyl)ethenyl)-10H-phenothiazine]	53 nM
C=C(c1ccc(C#N)c(C)c1)c1ccc2c(c1)Nc1ccccc1S2 [Compound B37, 4-(1-(10H-phenothiazin-2-yl)ethenyl)-2-methylbenzonitrile]	14 nM
C=C(c1ccc([N+](=O)[O-])c(C)c1)c1ccc2c(c1)Nc1ccccc1S2 [Compound B38, 2-(1-(3-methyl-4-nitrophenyl)ethenyl)-10H-phenothiazine]	35 nM
C=C(c1ccc2c(c1)Nc1ccccc1S2)c1ccc(OC)c(OC)c1 [Compound B39, 2-(1-(3,4-dimethoxylphenyl)ethenyl)-10H-phenothiazine]	23 nM
C=C(c1cc(C(C)(C)C)cc(C(C)(C)C)c1)c1ccc2c(c1)Nc1ccccc1S2 [Compound B41, 2-(1-(3,5-di-t-butylphenyl)ethenyl)-10H-phenothiazine]	905 nM
C=C(c1ccc(N)nc1)c1ccc2c(c1)Nc1ccccc1S2 [Compound B44, 5-(1-(10H-phenothiazin-2-yl)ethenyl)pyridin-2-amine]	11 nM
C=C(c1ccc2c(c1)Nc1ccccc1S2)c1ccc(C(=O)Nc2ccc(CN3CCN(C)CC3)c(C(F)(F)F)c2)cc1C [Compound B46, 4-(1-(10H-phenothiazin-2-yl)ethenyl)-3-methyl-N-(4-((4-methylpiperazin-1-yl)methyl)-3-(trifluoromethyl)phenyl)benzamide]	10 nM
C=C(c1ccc(C(=O)N2CCN(C)CC2)cc1)c1ccc2c(c1)Nc1ccccc1S2 [Compound B48, (4-(1-(10H-phenothiazin-2-yl)ethenyl)phenyl)(4-methylpiperazin-1-yl)ketone]	13 nM
C=C(c1cnc(N2CCN(C)CC2)nc1)c1ccc2c(c1)Nc1ccccc1S2 [Compound B49, 2-(1-(2-(4-methylpiperazin-1-yl)pyrimidin-5-yl)ethenyl)-10H-phenothiazine]	2 nM
C=C(c1cnc(N2CCCN(C)CC2)nc1)c1ccc2c(c1)Nc1ccccc1S2 [Compound B50, 2-(1-(2-(4-methyl-1,4-homopiperazin-1-yl)pyrimidin-5-yl)ethenyl)-10H-phenothiazine]	4 nM
C=C(c1ccc(S(=O)(=O)NC2CCOCC2)cc1)c1ccc2c(c1)Nc1ccccc1S2 [Compound B52, 4-(1-(10H-phenothiazin-2-yl)ethenyl)-N-(tetrahydro-2H-pyran-4-yl)benzenesulfonamide]	11 nM
C=C(c1cccc(S(=O)(=O)NC(C)(C)C)c1)c1ccc2c(c1)Nc1ccccc1S2 [Compound B53, 3-(1-(10H-phenothiazin-2-yl)ethenyl)-N-(t-butyl)Benzenesulfonamide]	148 nM
C=C(c1ccc(S(=O)(=O)N2CCCC2)cc1)c1ccc2c(c1)Nc1ccccc1S2 [Compound B54, 2-(1-(4-(pyrrolin-1-ylsulfonyl)phenyl)ethenyl)-10H-phenothiazine]	32 nM
C=C(c1ccc(S(=O)(=O)NC2CCN(C)CC2)cc1)c1ccc2c(c1)Nc1ccccc1S2 [Compound B59, 4-(1-(10H-phenothiazin-2-yl)ethenyl)-N-(1-methylpiperidin-4-yl)Benzenesulfonamide]	0.2 nM

Second part, the compound after the results:

EC50	Structure (SMILES)
30 nM	C=C(c1cccc(OC(F)(F)F)c1)c1ccc2c(c1)Nc1ccccc1S2 [Compound B22, 2-(1-(3-trifluoromethoxylphenyl)ethenyl)-10H-phenothiazine]
16 nM	C=C(c1cccc(C(C)(C)C)c1)c1ccc2c(c1)Nc1ccccc1S2 [Compound B25, 2-(1-(3-t-butylphenyl)ethenyl)-10H-phenothiazine]
45 nM	C=C(c1cccc(C(F)(F)F)c1)c1ccc2c(c1)Nc1ccccc1S2 [Compound B30, 2-(1-(3-(trifluoromethyl)phenyl)ethenyl)-10H-phenothiazine]
51 nM	C=C(c1cccc(C(=O)OC)c1)c1ccc2c(c1)Nc1ccccc1S2 [Compound B31, methyl 3-(1-(10H-phenothiazin-2-yl)ethenyl)benzoic acid]
89 nM	C=C(c1cccc(C#N)c1)c1ccc2c(c1)Nc1ccccc1S2 [Compound B32, 3-(1-(10H-phenothiazin-2-yl)ethenyl)benzonitrile]
111 nM	C=C(c1cccc(C(=O)c2ccccc2)c1)c1ccc2c(c1)Nc1ccccc1S2 [Compound B33, (3-(1-(10H-phenothiazin-2-yl)ethenyl)phenyl)benzophenone]
30 nM	C=C(c1cccc(N2CCOCC2)c1)c1ccc2c(c1)Nc1ccccc1S2 [Compound B36, 4-(3-(1-(10H-phenothiazin-2-yl)ethenyl)phenyl)morpholine]
41 nM	C=C(c1ccc(C#N)c(F)c1)c1ccc2c(c1)Nc1ccccc1S2 [Compound B40, 4-(1-(10H-phenothiazin-2-yl)ethenyl)-2-fluorobenzonitrile]
4 nM	C=C(c1ccc(NC(C)=O)nc1)c1ccc2c(c1)Nc1ccccc1S2 [Compound B43, N-(5-(1-(10H-phenothiazin-2-yl)ethenyl)pyridin-2-yl)acetylamine]
13 nM	C=C(c1ccc(N2CCOCC2)nc1)c1ccc2c(c1)Nc1ccccc1S2 [Compound B45, 4-(5-(1-(10H-phenothiazin-2-yl)ethenyl)pyridin-2-yl)morpholine]
12 nM	C=C(c1cccc(S(=O)(=O)NC2CCOCC2)c1)c1ccc2c(c1)Nc1ccccc1S2 [Compound B55, 3-(1-(10H-phenothiazin-2-yl)ethenyl)-N-(tetrahydro-2H-pyran-4-yl)benzenesulfonamide]
22 nM	C=C(c1ccc(S(=O)(=O)NCC2CCOCC2)cc1)c1ccc2c(c1)Nc1ccccc1S2 [Compound B56, 4-(1-(10H-phenothiazin-2-yl)ethenyl)-N-((tetrahydro-2H-pyran-4-yl)methyl)Benzenesulfonamide]
34 nM	C=C(c1ccc(S(=O)(=O)N2CCOCC2)cc1)c1ccc2c(c1)Nc1ccccc1S2 [Compound B57, 4-((4-(1-(10H-phenothiazin-2-yl)ethenyl)phenyl)sulfonyl)morpholine]
66 nM	C=C(c1ccc(S(=O)(=O)NC2CCC2)cc1)c1ccc2c(c1)Nc1ccccc1S2 [Compound B58, 4-(1-(10H-phenothiazin-2-yl)ethenyl)-N-cyclobutylbenzenesulfonamide]
68 nM	CC(c1ccc2c(c1)Nc1ccccc1S2)S(=O)(=O)N1CCOCC1 (stereo not drawn) [Compound C1, 4-((1-(10H-phenothiazin-2-yl)ethyl)sulfonyl)morpholine]
34 nM	CC(c1ccc2c(c1)Nc1ccccc1S2)S(=O)(=O)N1CCN(C)CC1 (stereo not drawn) [Compound C2, 2-(1-((4-methylpiperazin-1-yl)sulfonyl)ethyl)-10H-phenothiazine]
9 nM	CC(c1ccc2c(c1)Nc1ccccc1S2)S(=O)(=O)N1CCCN(C)CC1 (stereo not drawn) [Compound C3, 2-(1-((4-methyl-1,4-homopiperazin-1-yl)sulfonyl)ethyl)-10H-phenothiazine]

same assay, conditions: Homo sapiens, HT-1080, HT1080, ferroptosis inducer Erastin, 72 h, average of three tests, read-out: EC50

Structure (SMILES)	EC50
C=C(c1ccc2c(c1)Nc1ccccc1S2)c1cc(OC)c(OC)c(OC)c1 [Compound B42, 2-(1-(3,4,5-trimethoxylphenyl)ethenyl)-10H-phenothiazine]	45 nM
